Earlier results in patent US20030181475A1, “Method of administering buprenorphine to treat depression” (EURO-CELTIQUE S.A., priority 2002, published 2003).

tested on: depressed patients; conditions: literature clinical reports

Compound | anti-depressive / therapeutic effect in depressed patients
β-endorphin (YGGFMTSEKSQTPLVTLFKNAIIKNAYKKGE; Beta-endorphin; UniProt P01189 237-267, looked up) [an endogenous opioid] | no or little observable therapeutic effect
CCC(=O)C(CC(C)N(C)C)(c1ccccc1)c1ccccc1 (centres unmarked) [methadone] | conflicting
CN1CC[C@]23c4c5ccc(O)c4O[C@H]2[C@@H](O)C=C[C@H]3[C@H]1C5 [morphine] | conflicting
COc1ccc2c3c1O[C@H]1[C@@H](O)C=C[C@H]4[C@@H](C2)N(C)CC[C@@]341 [codeine] | no anti-depressive effect
COc1cccc(C2(O)CCCCC2CN(C)C)c1 (centres unmarked) [tramadol] | helped a patient with refractory major depression
